Measurements reported in patent publication US20240358672A1, “APPLICATION OF GENISTEIN AND ITS PHOSPHATE ESTER DERIVATIVE AND PHARMACEUTICAL COMPOSITION COMPRISING THE SAME” (National Taiwan University, priority 2023, published 2024).

Tests used:
C57BL/6J mice = format: in vivo; details: Δ^9-THC 1 mg/kg plus genistein 50 mg/kg or rimonabant 3 mg/kg
Method: FIG. 7A: Isometric tension recordings of isolated mice thoracic aortas were performed using a wire myograph. Vascular concentration-dependent relaxation was induced by acetylcholine (ACh) in pre-constricted mouse thoracic arteries. […] FIG. 7C: Luminex analysis of inflammatory cytokines in plasma of C57BL/6J mice treated with vehicle control, Δ^9-THC, or Δ^9-THC plus genistein. […] FIG. 7E: Effect of Δ^9-THC and genistein on NF-κB phosphorylation in mouse thoracic artery. Total cell lysates were prepared, and the expressions of phosphor-NF-κB were analyzed by ELISA (upper left). Superoxide dismutase (SOD) activity of serum from mouse (bottom left). The effect of Δ^9-THC and genistein on NF-κB phosphorylation in mouse thoracic artery tissues (n=5). Total cell lysates were prepared, and the expressions of NF-κB, phosphorylated NF-κB, and β-actin were analyzed by western blot analysis (right panel). FIG. 7F: The levels reduced glutathione (GSH), Oxidized glutathione (GSSG), Total glutathione (T-GSH) and GSH/GSSG in the serum samples of mice were detected. Plasma isolated from C57BL/6J mice (n=5) treated with vehicle control, Δ^9-THC, genistein, or their combination every day for 30 days was analyzed by the glutathione colorimetric assay kit (BioVision, K261).
Genistein also rescued the oxidative stress protective-related gene expression (FIG. 7D). In addition, NF-κB phosphorylation and SOD expression in mouse serum were also attenuated with genistein (FIG. 7E). Δ^9-THC administration decreased circulating levels of the antioxidant glutathione, which was ameliorated with genistein cotreatment (FIG. 7F).

CB1 receptor = CB1 receptor (Homo sapiens, UniProt P21554); assay: GTPase-Glo assay (in vitro GTPase assay); format: biochemical; details: GTPase-Glo assay
Sequence of CB1 receptor (P21554 whole entry): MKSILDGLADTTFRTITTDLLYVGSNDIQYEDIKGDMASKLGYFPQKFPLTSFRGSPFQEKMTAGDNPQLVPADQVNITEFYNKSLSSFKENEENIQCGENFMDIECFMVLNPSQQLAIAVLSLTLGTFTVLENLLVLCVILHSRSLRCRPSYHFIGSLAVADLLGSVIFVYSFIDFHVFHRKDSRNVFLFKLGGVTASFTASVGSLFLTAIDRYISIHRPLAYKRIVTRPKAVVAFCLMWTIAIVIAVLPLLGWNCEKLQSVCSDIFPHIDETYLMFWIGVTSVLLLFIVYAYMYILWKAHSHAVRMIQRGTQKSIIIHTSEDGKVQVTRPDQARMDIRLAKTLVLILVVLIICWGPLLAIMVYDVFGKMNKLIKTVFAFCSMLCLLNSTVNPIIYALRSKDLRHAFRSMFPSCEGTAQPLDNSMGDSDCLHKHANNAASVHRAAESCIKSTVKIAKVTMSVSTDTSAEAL

SMILES	Δ^9-THC-induced mRNA expressions of inflammation-related genes in mouse thoracic artery tissues (C57BL/6J mice)	GTP turnover compared with Apo (CB1 receptor)
Cc1c(C(=O)NN2CCCCC2)nn(-c2ccc(Cl)cc2Cl)c1-c1ccc(Cl)cc1 [rimonabant]	ameliorated	
C[C@H](NC(=O)C(C)(C)Oc1ccc(C(F)(F)F)cn1)[C@@H](Cc1ccc(Cl)cc1)c1cccc(C#N)c1 [taranabant]		decrease GTP turnover
